Measurements reported in PMC7265341, “Quantifying CDK inhibitor selectivity in live cells” (Nature Communications, 2020).
Read-outs that look alike come from different tables or passages of the source.

Columns and labels:
CDK1/Cyclin E1 = CDK1/Cyclin E1 (Homo sapiens, UniProt P06493); experiment: NanoBRET live-cell target engagement, CDK1-NanoLuc/Cyclin E1 in HEK-293; assay type: binding; conditions: CDK1/E1, read-out: Inhibition at 10µM (%)
CDK4/Cyclin D1 = CDK4/Cyclin D1 (Homo sapiens, UniProt P11802); experiment: NanoBRET live-cell target engagement, NanoLuc-CDK4/Cyclin D1 in HEK-293; assay type: binding; conditions: CDK4/D1, read-out: Inhibition at 10µM (%)
Chain of CDK4/Cyclin D1 (P11802 whole entry): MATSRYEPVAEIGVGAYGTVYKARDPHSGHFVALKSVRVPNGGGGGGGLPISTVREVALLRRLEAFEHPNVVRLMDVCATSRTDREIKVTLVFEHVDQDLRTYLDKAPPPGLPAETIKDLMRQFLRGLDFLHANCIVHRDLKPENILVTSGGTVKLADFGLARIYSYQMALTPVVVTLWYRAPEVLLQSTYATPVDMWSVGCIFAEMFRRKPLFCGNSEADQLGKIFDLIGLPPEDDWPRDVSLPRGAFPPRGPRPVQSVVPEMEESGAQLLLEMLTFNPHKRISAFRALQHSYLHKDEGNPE
Chain of CDK4/Cyclin D1 (P24385 whole entry partner): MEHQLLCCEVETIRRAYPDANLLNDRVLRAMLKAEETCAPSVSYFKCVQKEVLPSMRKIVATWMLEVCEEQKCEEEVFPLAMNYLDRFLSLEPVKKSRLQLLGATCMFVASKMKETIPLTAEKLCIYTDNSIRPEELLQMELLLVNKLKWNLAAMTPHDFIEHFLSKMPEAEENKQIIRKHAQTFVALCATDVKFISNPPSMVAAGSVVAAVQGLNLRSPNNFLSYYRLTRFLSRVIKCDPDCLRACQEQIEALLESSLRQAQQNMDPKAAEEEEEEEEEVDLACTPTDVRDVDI

CDK5/CDK5R1 = CDK5/CDK5R1 (Homo sapiens, UniProt Q00535); experiment: NanoBRET live-cell target engagement, CDK5-NanoLuc/CDK5R1 in HEK-293; assay type: binding; conditions: CDK5/CDK5R1, read-out: Inhibition at 10µM (%)
Chain of CDK5/CDK5R1 (Q00535 whole entry): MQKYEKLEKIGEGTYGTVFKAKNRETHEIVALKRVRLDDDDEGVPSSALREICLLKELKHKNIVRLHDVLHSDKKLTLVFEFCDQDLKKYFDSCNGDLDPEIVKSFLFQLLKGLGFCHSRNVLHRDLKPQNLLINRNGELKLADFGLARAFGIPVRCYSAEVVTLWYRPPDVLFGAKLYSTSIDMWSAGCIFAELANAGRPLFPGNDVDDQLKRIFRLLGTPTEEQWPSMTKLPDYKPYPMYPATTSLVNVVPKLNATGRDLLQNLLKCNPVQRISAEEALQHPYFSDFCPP
Chain of CDK5/CDK5R1 (Q15078 whole entry partner): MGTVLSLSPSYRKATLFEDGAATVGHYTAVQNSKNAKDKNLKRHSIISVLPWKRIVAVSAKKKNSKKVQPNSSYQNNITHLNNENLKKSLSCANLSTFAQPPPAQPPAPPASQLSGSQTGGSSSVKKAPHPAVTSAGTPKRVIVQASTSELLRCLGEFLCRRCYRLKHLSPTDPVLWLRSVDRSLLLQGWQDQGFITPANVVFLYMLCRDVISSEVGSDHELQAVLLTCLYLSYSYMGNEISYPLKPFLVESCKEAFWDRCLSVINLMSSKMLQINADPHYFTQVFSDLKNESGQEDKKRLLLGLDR

CDK6/Cyclin D1 = CDK6/Cyclin D1 (Homo sapiens, UniProt Q00534); experiment: NanoBRET live-cell target engagement, NanoLuc-CDK6/Cyclin D1 in HEK-293; assay type: binding; conditions: CDK6/D1, read-out: Inhibition at 10µM (%)
CDK7 = CDK7 (Homo sapiens, UniProt P50613); experiment: NanoBRET live-cell target engagement, NanoLuc-CDK7 in HEK-293; assay type: binding; conditions: for inhibition at 10 µM: read-out: Inhibition at 10µM (%)
CDK8/Cyclin C = CDK8/Cyclin C (Homo sapiens, UniProt P49336); experiment: NanoBRET live-cell target engagement, NanoLuc-CDK8/Cyclin C in HEK-293; assay type: binding; conditions: for inhibition at 10 µM: read-out: Inhibition at 10µM (%)
CDK9/Cyclin K = CDK9/Cyclin K (Homo sapiens, UniProt P50750); experiment: NanoBRET live-cell target engagement, NanoLuc-CDK9/Cyclin K in HEK-293; assay type: binding; conditions: CDK9/K, read-out: Inhibition at 10µM (%)
CDK11B/Cyclin L2 = CDK11B/Cyclin L2 (Homo sapiens, UniProt P21127); experiment: NanoBRET live-cell target engagement, CDK11B-NanoLuc/Cyclin L2 in HEK-293; assay type: binding; conditions: CDK11b/L2, read-out: Inhibition at 10µM (%)
CDK12/Cyclin K = CDK12/Cyclin K (Homo sapiens, UniProt Q9NYV4); experiment: NanoBRET live-cell target engagement, CDK12-NanoLuc/Cyclin K in HEK-293; assay type: binding; conditions: CDK12/K, read-out: Inhibition at 10µM (%)
Chain of CDK12/Cyclin K (Q9NYV4 1-1481 isoform Q9NYV4-2): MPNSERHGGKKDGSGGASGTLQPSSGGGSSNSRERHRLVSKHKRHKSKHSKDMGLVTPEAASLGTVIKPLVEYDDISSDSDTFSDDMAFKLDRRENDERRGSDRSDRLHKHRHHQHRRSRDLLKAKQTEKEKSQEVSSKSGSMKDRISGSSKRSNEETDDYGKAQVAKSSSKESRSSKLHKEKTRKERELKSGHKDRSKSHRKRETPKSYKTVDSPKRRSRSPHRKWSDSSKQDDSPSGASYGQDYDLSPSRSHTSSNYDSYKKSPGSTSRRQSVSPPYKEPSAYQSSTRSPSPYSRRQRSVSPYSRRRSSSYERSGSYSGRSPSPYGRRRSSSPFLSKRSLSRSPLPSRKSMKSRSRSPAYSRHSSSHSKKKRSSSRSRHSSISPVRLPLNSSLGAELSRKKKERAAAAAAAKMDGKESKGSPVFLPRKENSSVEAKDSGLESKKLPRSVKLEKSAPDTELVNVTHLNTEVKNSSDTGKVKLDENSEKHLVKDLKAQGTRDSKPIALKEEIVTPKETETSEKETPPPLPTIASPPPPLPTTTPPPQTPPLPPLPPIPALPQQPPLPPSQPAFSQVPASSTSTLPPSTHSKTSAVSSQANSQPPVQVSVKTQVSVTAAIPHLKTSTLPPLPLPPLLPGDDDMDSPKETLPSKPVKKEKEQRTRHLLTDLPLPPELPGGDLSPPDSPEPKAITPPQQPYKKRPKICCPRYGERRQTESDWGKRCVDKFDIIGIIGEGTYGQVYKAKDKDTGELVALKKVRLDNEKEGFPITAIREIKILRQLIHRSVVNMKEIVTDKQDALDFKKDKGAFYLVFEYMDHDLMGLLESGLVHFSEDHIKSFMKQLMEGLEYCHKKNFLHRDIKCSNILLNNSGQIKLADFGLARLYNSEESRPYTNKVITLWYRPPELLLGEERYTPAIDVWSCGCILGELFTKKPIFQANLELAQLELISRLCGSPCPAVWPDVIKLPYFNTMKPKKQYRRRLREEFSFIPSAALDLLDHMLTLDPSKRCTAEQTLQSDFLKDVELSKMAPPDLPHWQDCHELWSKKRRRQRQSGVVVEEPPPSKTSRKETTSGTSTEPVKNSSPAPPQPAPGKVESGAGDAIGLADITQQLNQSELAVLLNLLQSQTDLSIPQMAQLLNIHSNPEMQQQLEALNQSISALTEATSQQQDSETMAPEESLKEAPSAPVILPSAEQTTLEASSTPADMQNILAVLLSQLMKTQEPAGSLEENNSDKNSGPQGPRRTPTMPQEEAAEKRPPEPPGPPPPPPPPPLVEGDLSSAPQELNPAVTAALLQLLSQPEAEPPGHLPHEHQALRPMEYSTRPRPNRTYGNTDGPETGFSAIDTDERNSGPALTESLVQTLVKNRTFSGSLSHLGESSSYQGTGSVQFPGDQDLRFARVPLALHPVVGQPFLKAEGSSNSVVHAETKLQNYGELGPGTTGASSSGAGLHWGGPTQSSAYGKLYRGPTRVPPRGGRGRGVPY
Chain of CDK12/Cyclin K (O75909 whole entry partner): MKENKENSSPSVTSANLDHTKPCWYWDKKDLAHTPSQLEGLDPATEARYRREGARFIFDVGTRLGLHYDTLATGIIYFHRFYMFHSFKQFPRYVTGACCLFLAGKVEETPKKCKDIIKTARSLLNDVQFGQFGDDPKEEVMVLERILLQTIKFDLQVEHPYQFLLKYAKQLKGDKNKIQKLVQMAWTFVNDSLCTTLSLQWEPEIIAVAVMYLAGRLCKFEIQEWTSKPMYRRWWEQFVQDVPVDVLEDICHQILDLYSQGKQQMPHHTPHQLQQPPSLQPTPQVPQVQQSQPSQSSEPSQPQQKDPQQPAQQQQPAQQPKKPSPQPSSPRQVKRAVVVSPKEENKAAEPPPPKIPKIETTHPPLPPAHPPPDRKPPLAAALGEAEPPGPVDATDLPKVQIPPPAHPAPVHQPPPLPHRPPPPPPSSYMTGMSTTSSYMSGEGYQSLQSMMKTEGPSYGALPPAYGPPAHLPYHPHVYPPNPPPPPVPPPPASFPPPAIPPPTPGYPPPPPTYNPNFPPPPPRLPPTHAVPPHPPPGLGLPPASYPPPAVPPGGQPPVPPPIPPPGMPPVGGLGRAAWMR

CDK13/Cyclin K = CDK13/Cyclin K (Homo sapiens, UniProt Q14004); experiment: NanoBRET live-cell target engagement, CDK13-NanoLuc/Cyclin K in HEK-293; assay type: binding; conditions: CDK13/K, read-out: Inhibition at 10µM (%)
CDK14/Cyclin Y = CDK14/Cyclin Y (Homo sapiens, UniProt O94921); experiment: NanoBRET live-cell target engagement, CDK14-NanoLuc/Cyclin Y in HEK-293; assay type: binding; conditions: CDK14/Y, read-out: Inhibition at 10µM (%)
CDK15/Cyclin Y = CDK15/Cyclin Y (Homo sapiens, UniProt Q96Q40); experiment: NanoBRET live-cell target engagement, NanoLuc-CDK15/Cyclin Y in HEK-293; assay type: binding; conditions: CDK15/Y, read-out: Inhibition at 10µM (%)
CDK16/Cyclin Y = CDK16/Cyclin Y (Homo sapiens, UniProt Q00536); experiment: NanoBRET live-cell target engagement, CDK16-NanoLuc/Cyclin Y in HEK-293; assay type: binding; conditions: CDK16/Y; for IC50: read-out: IC50; for inhibition at 10 µM: read-out: Inhibition at 10µM (%)
CDK17/Cyclin Y = CDK17/Cyclin Y (Homo sapiens, UniProt Q00537); experiment: NanoBRET live-cell target engagement, CDK17-NanoLuc/Cyclin Y in HEK-293; assay type: binding; conditions: CDK17/Y; for IC50: read-out: IC50; for inhibition at 10 µM: read-out: Inhibition at 10µM (%)
CDK18/Cyclin Y = CDK18/Cyclin Y (Homo sapiens, UniProt Q07002); experiment: NanoBRET live-cell target engagement, CDK18-NanoLuc/Cyclin Y in HEK-293; assay type: binding; conditions: CDK18/Y; for IC50: read-out: IC50; for inhibition at 10 µM: read-out: Inhibition at 10µM (%)
Chain of CDK18/Cyclin Y (Q07002 whole entry): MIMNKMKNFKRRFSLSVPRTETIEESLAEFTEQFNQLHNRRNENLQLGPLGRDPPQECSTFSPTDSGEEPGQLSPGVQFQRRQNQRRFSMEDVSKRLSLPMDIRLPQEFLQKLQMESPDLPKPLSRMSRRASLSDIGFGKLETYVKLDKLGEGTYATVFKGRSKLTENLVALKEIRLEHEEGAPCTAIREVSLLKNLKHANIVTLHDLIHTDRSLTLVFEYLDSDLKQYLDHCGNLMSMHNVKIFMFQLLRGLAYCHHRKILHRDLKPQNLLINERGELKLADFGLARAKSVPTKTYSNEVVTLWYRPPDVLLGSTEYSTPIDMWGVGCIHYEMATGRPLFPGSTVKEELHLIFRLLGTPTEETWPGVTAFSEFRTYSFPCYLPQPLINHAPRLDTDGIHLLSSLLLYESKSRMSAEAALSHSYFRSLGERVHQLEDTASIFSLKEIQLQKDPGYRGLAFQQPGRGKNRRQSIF
Chain of CDK18/Cyclin Y (Q8ND76 whole entry partner): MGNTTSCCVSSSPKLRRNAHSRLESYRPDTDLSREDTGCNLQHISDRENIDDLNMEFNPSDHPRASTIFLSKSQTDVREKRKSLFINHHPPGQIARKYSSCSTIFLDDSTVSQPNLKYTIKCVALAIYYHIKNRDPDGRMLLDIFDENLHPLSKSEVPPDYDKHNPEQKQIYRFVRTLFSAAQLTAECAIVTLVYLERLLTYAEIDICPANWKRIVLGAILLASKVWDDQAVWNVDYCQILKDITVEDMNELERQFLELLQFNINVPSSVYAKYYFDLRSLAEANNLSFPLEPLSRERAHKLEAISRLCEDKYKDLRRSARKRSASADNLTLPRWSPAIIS

CDK20/Cyclin H = CDK20/Cyclin H (Homo sapiens, UniProt Q8IZL9); experiment: NanoBRET live-cell target engagement, NanoLuc-CDK20/Cyclin H in HEK-293; assay type: binding; conditions: CDK20/H, read-out: Inhibition at 10µM (%)
CDK19/Cyclin C = CDK19/Cyclin C (Homo sapiens, UniProt Q9BWU1); experiment: NanoBRET live-cell target engagement, NanoLuc-CDK19/Cyclin C in HEK-293; conditions: for inhibition at 10 µM: read-out: Inhibition at 10µM (%), CDK19/C
Chain of CDK19/Cyclin C (Q9BWU1 whole entry): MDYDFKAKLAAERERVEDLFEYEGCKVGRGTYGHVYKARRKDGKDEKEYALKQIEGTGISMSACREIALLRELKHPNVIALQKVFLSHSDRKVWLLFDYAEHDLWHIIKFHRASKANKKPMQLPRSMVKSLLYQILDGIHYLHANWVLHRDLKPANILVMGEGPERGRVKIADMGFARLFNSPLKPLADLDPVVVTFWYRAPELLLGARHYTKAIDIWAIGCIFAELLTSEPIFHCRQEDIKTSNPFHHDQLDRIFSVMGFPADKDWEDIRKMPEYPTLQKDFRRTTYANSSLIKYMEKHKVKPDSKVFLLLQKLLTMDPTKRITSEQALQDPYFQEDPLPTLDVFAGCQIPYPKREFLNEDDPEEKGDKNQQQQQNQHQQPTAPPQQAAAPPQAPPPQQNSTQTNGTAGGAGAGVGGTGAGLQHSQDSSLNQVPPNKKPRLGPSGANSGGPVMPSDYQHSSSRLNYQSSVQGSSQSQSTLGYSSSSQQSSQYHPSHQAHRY
Chain of CDK19/Cyclin C (P24863 whole entry partner): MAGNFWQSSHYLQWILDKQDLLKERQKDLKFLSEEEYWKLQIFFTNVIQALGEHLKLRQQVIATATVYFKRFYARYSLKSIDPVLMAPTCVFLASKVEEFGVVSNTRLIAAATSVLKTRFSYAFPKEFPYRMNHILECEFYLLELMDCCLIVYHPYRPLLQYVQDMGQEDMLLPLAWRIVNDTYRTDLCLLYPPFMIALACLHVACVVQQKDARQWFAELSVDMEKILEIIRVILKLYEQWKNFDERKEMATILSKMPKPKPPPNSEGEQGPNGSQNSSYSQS

CDK10/Cyclin L2 = CDK10/Cyclin L2 (Homo sapiens, UniProt Q15131); experiment: NanoBRET live-cell target engagement, CDK10-NanoLuc/Cyclin L2 in HEK-293; conditions: for IC50: IC50 (nM), CDK10/L2; for inhibition at 10 µM: read-out: Inhibition at 10µM (%), CDK10/L2

## CN1CCN(Cc2ccc(NC(=O)Nc3ccc(Oc4ccnc(N)n4)cc3)cc2C(F)(F)F)CC1 [K03861]
CDK1/Cyclin E1; average
  inhibition at 10 µM: 70.4%
CDK1/Cyclin E1; experiment 1
  inhibition at 10 µM: 66.2%
CDK1/Cyclin E1; experiment 2
  inhibition at 10 µM: 74.6%
CDK4/Cyclin D1; average
  inhibition at 10 µM: 78.8%
CDK4/Cyclin D1; experiment 1
  inhibition at 10 µM: 79.9%
CDK4/Cyclin D1; experiment 2
  inhibition at 10 µM: 77.6%
CDK5/CDK5R1; average
  inhibition at 10 µM: 23.7%
CDK5/CDK5R1; experiment 1
  inhibition at 10 µM: 27.8%
CDK5/CDK5R1; experiment 2
  inhibition at 10 µM: 19.6%
CDK6/Cyclin D1; average
  inhibition at 10 µM: 35.2%
CDK6/Cyclin D1; experiment 1
  inhibition at 10 µM: 23.8%
CDK6/Cyclin D1; experiment 2
  inhibition at 10 µM: 46.5%
CDK7; CDK7, average
  inhibition at 10 µM: 81.8%
CDK7; CDK7, experiment 1, read-out: IC50
  IC50: 76 nM
CDK7; CDK7, experiment 1
  inhibition at 10 µM: 83.6%
CDK7; CDK7, experiment 2, read-out: IC50
  IC50: 59 nM
CDK7; CDK7, experiment 2
  inhibition at 10 µM: 79.9%
CDK7; CDK7, experiment 3, read-out: IC50
  IC50: 55 nM
CDK7; live HEK-293, 2 h, mean ± S.E.M. (n=3) or mean (n=2), read-out: IC50 for CDK/cyclin complexes, CDK7
  IC50: 63 nM
CDK8/Cyclin C; CDK8/C, average
  inhibition at 10 µM: 95.6%
CDK8/Cyclin C; CDK8/C, experiment 1, read-out: IC50
  IC50: 2.1 nM
CDK8/Cyclin C; CDK8/C, experiment 1
  inhibition at 10 µM: 96.7%
CDK8/Cyclin C; CDK8/C, experiment 2, read-out: IC50
  IC50: 5 nM
CDK8/Cyclin C; CDK8/C, experiment 2
  inhibition at 10 µM: 94.5%
CDK8/Cyclin C; CDK8/C, experiment 3, read-out: IC50
  IC50: 2.2 nM
CDK8/Cyclin C; live HEK-293, 2 h, mean ± S.E.M. (n=3) or mean (n=2), read-out: IC50 for CDK/cyclin complexes, CDK8/C
  IC50: 3 nM
CDK9/Cyclin K; average
  inhibition at 10 µM: 85.1%
CDK9/Cyclin K; experiment 1
  inhibition at 10 µM: 84.3%
CDK9/Cyclin K; experiment 2
  inhibition at 10 µM: 85.8%
CDK11B/Cyclin L2; average
  inhibition at 10 µM: 9.9%
CDK11B/Cyclin L2; experiment 1
  inhibition at 10 µM: 15.5%
CDK11B/Cyclin L2; experiment 2
  inhibition at 10 µM: 4.3%
CDK12/Cyclin K; average
  inhibition at 10 µM: 43.7%
CDK12/Cyclin K; experiment 1
  inhibition at 10 µM: 39%
CDK12/Cyclin K; experiment 2
  inhibition at 10 µM: 48.3%
CDK13/Cyclin K; average
  inhibition at 10 µM: 36.6%
CDK13/Cyclin K; experiment 1
  inhibition at 10 µM: 32.4%
CDK13/Cyclin K; experiment 2
  inhibition at 10 µM: 40.8%
CDK14/Cyclin Y; average
  inhibition at 10 µM: 84.9%
CDK14/Cyclin Y; experiment 1
  inhibition at 10 µM: 87.3%
CDK14/Cyclin Y; experiment 2
  inhibition at 10 µM: 82.6%
CDK15/Cyclin Y; average
  inhibition at 10 µM: 80.7%
CDK15/Cyclin Y; experiment 1
  inhibition at 10 µM: 82.9%
CDK15/Cyclin Y; experiment 2
  inhibition at 10 µM: 78.6%
CDK16/Cyclin Y; average (± SEM where n=3)
  IC50: 260 ± 70 nM
CDK16/Cyclin Y; experiment 1
  IC50: 140 nM
  inhibition at 10 µM: 74.3%
CDK16/Cyclin Y; experiment 2
  IC50: 365 nM
  inhibition at 10 µM: 80.7%
CDK16/Cyclin Y; experiment 3
  IC50: 270 nM
CDK17/Cyclin Y; average (± SEM where n=3)
  IC50: 190 ± 60 nM
CDK17/Cyclin Y; average
  inhibition at 10 µM: 89.9%
CDK17/Cyclin Y; experiment 1
  IC50: 80 nM
  inhibition at 10 µM: 89.1%
CDK17/Cyclin Y; experiment 2
  IC50: 281 nM
  inhibition at 10 µM: 90.7%
CDK17/Cyclin Y; experiment 3
  IC50: 200 nM
CDK18/Cyclin Y; average (± SEM where n=3)
  IC50: 400 ± 100 nM
CDK18/Cyclin Y; average
  inhibition at 10 µM: 93.7%
CDK18/Cyclin Y; experiment 1
  IC50: 144 nM
  inhibition at 10 µM: 88.2%
CDK18/Cyclin Y; experiment 2
  IC50: 408 nM
  inhibition at 10 µM: 99.2%
CDK18/Cyclin Y; experiment 3
  IC50: 610 nM
CDK20/Cyclin H; experiment 1
  inhibition at 10 µM: 40%
CDK20/Cyclin H; experiment 2
  inhibition at 10 µM: 64.4%
CDK19/Cyclin C; IC50 (nM), CDK19/C, experiment 1
  IC50: 1.4 nM
CDK19/Cyclin C; IC50 (nM), CDK19/C, experiment 2
  IC50: 2.3 nM
CDK19/Cyclin C; IC50 (nM), CDK19/C, experiment 3
  IC50: 0.5 nM
CDK19/Cyclin C; IC50 (nM), CDK19/Y (so in the source), average (± SEM where n=3)
  IC50: 1.4 ± 0.5 nM
CDK19/Cyclin C; IC50 for CDK/cyclin complexes, CDK19/C, live HEK-293, 2 h, mean ± S.E.M. (n=3) or mean (n=2)
  IC50: 1.4 ± 0.5 nM
CDK19/Cyclin C; average
  inhibition at 10 µM: 96.4%
CDK19/Cyclin C; experiment 1
  inhibition at 10 µM: 95.5%
CDK19/Cyclin C; experiment 2
  inhibition at 10 µM: 97.3%
CDK10/Cyclin L2; average (± SEM where n=3)
  IC50: 500 ± 100 nM
CDK10/Cyclin L2; experiment 1
  IC50: 310 nM
  inhibition at 10 µM: 79.7%
CDK10/Cyclin L2; experiment 2
  IC50: 530 nM
  inhibition at 10 µM: 79.9%
CDK10/Cyclin L2; experiment 3
  IC50: 670 nM
CDK10/Cyclin L2; average
  inhibition at 10 µM: 79.8%
